# Data as given in ChEMBL document CHEMBL1138610, “Peganine hydrochloride dihydrate an orally active antileishmanial agent” (Bioorg Med Chem Lett, 2009).
# Activity calls are given as the source filed them. The calls are words filed in the database; no cut-off is given here.
# Assays:
# Leishmania donovani [1] = assay: Antileishmanial activity against Leishmania donovani infected in hamster assessed inhibition of parasite growth at 40 mg/kg, po after 5 days; assay type: functional; set-up: scale not given: the % may be the effect or the level left
# Leishmania donovani [2] = assay: Antileishmanial activity against Leishmania donovani infected in hamster assessed inhibition of parasite growth at 200 mg/kg, po after 5 days; assay type: functional; set-up: scale not given: the % may be the effect or the level left
# Leishmania donovani [3] = assay: Antileishmanial activity against Leishmania donovani promastigotes expressing green fluorescence protein assessed as decrease in mean fluorescence intensity; assay type: functional, organism-based
# Leishmania donovani [4] = assay: Antileishmanial activity against Leishmania donovani amastigote infected in mouse J774A1 cells expressing green fluorescence protein assessed as decrease in mean fluorescence intensity up to 25 ug/ml; assay type: functional, organism-based; conditions: J774.A1
# Leishmania donovani [5] = assay: Antileishmanial activity against Leishmania donovani amastigote infected in mouse J774A1 cells expressing green fluorescence protein by flow cytometry; assay type: functional, organism-based; conditions: J774.A1
# Leishmania donovani [6] = assay: Antileishmanial activity against Leishmania donovani amastigote infected in mouse J774A1 cells expressing green fluorescence protein assessed as decrease in mean fluorescence intensity at 30 to 100 ug/ml; assay type: functional, organism-based; conditions: J774.A1
# Leishmania donovani [7] = assay: Antileishmanial activity against Leishmania donovani infected in hamster assessed inhibition of parasite growth at 100 mg/kg, po after 5 days; assay type: functional; set-up: scale not given: the % may be the effect or the level left
# J774.A1 = assay: Cytotoxicity against mouse J774A1 cells at 200 uM after 48 hrs by MTT assay; assay type: cell-based; conditions: j774.a1, 48 h
# Leishmania donovani [8] = assay: Antileishmanial activity against Leishmania donovani infected in hamster assessed inhibition of parasite growth at 50 mg/kg, po after 5 days; assay type: functional, organism-based; set-up: dose 50 mg/kg
# Leishmania donovani [9] = assay: Antileishmanial activity against Leishmania donovani promastigotes expressing green fluorescence protein by flow cytometry; assay type: functional
# Leishmania donovani [10] = assay: Antileishmanial activity against Leishmania donovani promastigotes assessed as inhibition of parasite multiplication at 10 ug/ml; assay type: functional; set-up: scale not given: the % may be the effect or the level left
Structure (SMILES),Activity (Leishmania donovani [1]),Activity (Leishmania donovani [2]),Activity (Leishmania donovani [3]),IC50 (Leishmania donovani [3]),IC90 (Leishmania donovani [3]),Activity (Leishmania donovani [4]),IC50 (Leishmania donovani [5]),IC90 (Leishmania donovani [5]),Activity (Leishmania donovani [6]),Activity (Leishmania donovani [7]),Activity (J774.A1),Activity (Leishmania donovani [8]),Activity (Leishmania donovani [9]),Activity (Leishmania donovani [10])
Cl.OC1CCN2Cc3ccccc3N=C12 (stereo not given) [PEGANINE HYDROCHLORIDE],95.5%,87.5%,Dose-dependent effect,38 µg/mL,75 µg/mL,Active,41 µg/mL,85 µg/mL,Active,79.6%,Non-toxic,inactive,50%,–
CCCCCCCCCCCCCCCCOP(=O)([O-])OCC[N+](C)(C)C [MILTEFOSINE],–,–,–,–,–,–,5 µg/mL,–,–,–,–,–,–,50%
